Data from patent US7144720B2, “Protein and DNA thereof” (Takeda Chemical Industries, Ltd., priority 1998, dated 2006).
One block for each molecule: values may come before it. Peptide text beside a SMILES is read from it. * marks the point of attachment. Cbz = O=C(OCc1ccccc1)*; NHOH = ON*

Experiments:
Format in all cases: biochemical
ADAM protein = molecular target: T1, ADAM protein (Homo sapiens, UniProt Q9UKQ2); assay: Inhibition of the protease activity of the ADAM protein by test compounds; conditions: Nma-Pro-Lys-Pro-Leu-Ala-Nva-Trp-Lys(DNP)-NH2 substrate, 37° C., 2 hours; read-out: IC50 value (concentration of a test compound which 50% inhibits the protease activity)
T1 construct: made in house; host or cells: Escherichia coli BL21 (DE3)
T1 sequence (Q9UKQ2 199-495): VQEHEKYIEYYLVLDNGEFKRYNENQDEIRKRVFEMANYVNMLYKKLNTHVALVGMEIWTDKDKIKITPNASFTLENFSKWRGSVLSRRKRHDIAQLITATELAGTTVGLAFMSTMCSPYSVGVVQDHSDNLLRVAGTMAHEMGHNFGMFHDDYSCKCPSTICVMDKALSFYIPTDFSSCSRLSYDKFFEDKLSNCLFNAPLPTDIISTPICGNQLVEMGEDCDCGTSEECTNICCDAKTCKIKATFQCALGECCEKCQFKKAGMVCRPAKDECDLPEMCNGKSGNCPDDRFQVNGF
Procedure: (§1) An enzymatic reaction was initiated by adding 75 μl of a buffer (83.3 mM Tris-HCl, pH 7.5, 16.7 mM NaCl, 1.67 mM CaCl2, 16.7 μM CoCl2, and 0.067% BSA) to a solution (25 μl) of the ADAM protein obtained according to the same manner as that of Example 3, and adding 25 μl of a solution of a substrate (50 μM Nma-Pro-Lys-Pro-Leu-Ala-Nva-Trp-Lys(DNP)-NH2, 0.05% BSA, and 5% DMSO). After a temperature was held at 37° C. for 2 hours, 100 μl of a 0.5M acetate buffer (pH 3.0) was added to stop the enzymatic reaction. The fluorescent intensity in the case of addition of no an enzyme solution [fluorescent intensity was measured at an excitation wavelength of 340 nm and a measuring wavelength of 450 nm using a fluorescent platereader (Corona MTP-32)] was 10, while the fluorescent intensity in the case of addition of the enzyme solution was 180.
10 μl of a test compound adjusted to the predetermined concentration (dissolved in 50% DMSO) was added to the above activity measuring system. […] From this, it was considered that search on a substance which regulates (inhibits or promotes) the protease activity of the present ADAM protein can be conducted using the present assay system.

[1] = molecular target: T2, Nma-Pro-Lys-Pro-Leu-Ala-Nva-Trp-Lys(DNP)-NH2 (Homo sapiens, UniProt Q9UKQ2); assay: Protease activity of ADAM protein with Nma peptide substrate; conditions: 37° C. for 2 hours; excitation 340 nm, measuring 450 nm; intensity 10 without enzyme solution
T2 construct: made in house; host or cells: Escherichia coli BL21 (DE3)
T2 sequence (Q9UKQ2 199-495): T1 sequence (Q9UKQ2 199-495)
Procedure: as §1

[2] = molecular target: T3, MOCAc-Arg-Pro-Lys-Pro-Tyr-Ala-Nva-Trp-Met-Lys(DNP)-NH2 (Homo sapiens, UniProt Q9UKQ2); assay: Detection of the protease activity of recombinant ADAM protein (fluorogenic MOCAc peptide substrate); conditions: 37° C. for 22 hour; excitation 328 nm, 393 nm; 10 μM substrate; intensity 2 when no protein added
T3 construct: made in house; host or cells: Escherichia coli BL21 (DE3)
T3 sequence (Q9UKQ2 199-495): T1 sequence (Q9UKQ2 199-495)
Procedure: 30 μL of a buffer [250 mM Tris-hydrochloric acid (pH7.5), 5 mM calcium chloride, and 10 μM zinc chloride] and 20 μL of the recombinant ADAM protein (0.8 mg/mL) obtained in Example 3 were added to a 96-well plate (Fluoro B plate, manufactured by Dainihonseiyaku). After preincuvation at 37° C. for 10 minutes, an enzymatic reaction was initiated by adding 100 μL of a 10 μM substrate [MOCAc-Arg-Pro-Lys-Pro-Tyr-Ala-Nva-Trp -Met-Lys(DNP)-NH2, manufactured by Peptide Laboratory]. After the reaction at 37° C. for 22 hour, the fluorescent intensity in the reaction solution was measured at an excitation wave length of 328 nm and […] wave length of 393 nm using a microplatereader (manufactured by Applied Biosystems). The fluorescent intensity was 2 when no recombinant ADAM protein was added, while the fluorescent intensity of 70 was shown when the protein was added. From these, it was made clear that the present ADAM protein had the protease activity. It is considered that search of a substance which regulates (inhibits and promotes) the protease activity of the present ADAM protein is possible using this assay.

IC50 (ADAM protein): ~100 µM
Molecule: CC(C)C[C@H](NC(=O)[C@@H]1CCCN1C(=O)OCc1ccccc1)C(=O)NCC(=O)NO [N-CBZ-Pro-Leu-Gly-hydroxamate] (Cbz-Pro-Leu-Gly-{NHOH})

IC50 (ADAM protein): 600 µM
Molecule: CCCCC[C@H](CC(=O)NO)C(=O)N[C@H](C(=O)N1CCC[C@H]1CO)C(C)C [actinonin]

fluorescent intensity [1]: 180 | fluorescent intensity [2]: 70
B1: recombinant ADAM protein: about 35 kDa His-tagged metalloprotease and disintegrin region of the novel human ADAM protein, expressed in Escherichia coli from pMDH (protein)
chain: T1 sequence (Q9UKQ2 199-495)
modifications: left off: small tags and cut ends
notes: about 35 kDa His-tagged metalloprotease and disintegrin region of the novel human ADAM protein, expressed in Escherichia coli from pMDH
